Holding throughout (assay type): biochemical
One experiment concerns the target T1, activated hepsin (Homo sapiens, UniProt P05981).
T1 construct: purchased R&D Systems 4776-SE-010
Description: Fluorescent kinetic enzyme assay of hepsin activity (Boc-QAR-AMC). The following applies: Table 2; read-out: Hepsin (IC50 nM).

Experiment [1] deals with T2, recombinant HGFA serine protease domain (Homo sapiens, UniProt Q04756).
T2 construct: His6 tag (N); seven amino acid spacer plus TEV cleavage site (N); made in house; host or cells: High 5 insect cells (baculovirus; Sf9 for virus production)
T2 sequence (Q04756 373-655): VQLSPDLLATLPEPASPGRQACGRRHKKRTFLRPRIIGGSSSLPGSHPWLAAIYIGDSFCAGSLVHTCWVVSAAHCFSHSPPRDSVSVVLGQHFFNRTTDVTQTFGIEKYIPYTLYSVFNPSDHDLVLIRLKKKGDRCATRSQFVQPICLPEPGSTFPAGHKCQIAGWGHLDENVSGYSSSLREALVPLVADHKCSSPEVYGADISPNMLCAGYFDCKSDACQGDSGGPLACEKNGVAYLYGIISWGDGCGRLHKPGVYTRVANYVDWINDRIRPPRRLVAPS
Description: Fluorescent kinetic enzyme assay of HGFA activity (Boc-QLR-AMC). The following applies: Table 2; read-out: HGFA (IC50 nM). The text has this: The compounds prepared in Examples 1 to 8 were subjected to a series of inhibitions studies. The compounds were first tested in an HGFA enzymatic assay using the fluorogenic substrate Boc-QLR-AMC with a recombinant form of the HGFA serine protease domain.
This PCR product was cloned into the SfoI-HindIII sites of a modified pFastBac HT baculovirus expression vector (Addgene, Cambridge, MA). This vector contains a six amino His tag followed by a seven amino spacer and a seven amino acid TEV cleavage site placed immediately downstream of the honey bee melittin signal peptide. Using a modified Bac to Bac Expression System (Life Technologies, Carlsbad, CA), recombinant HGFA bacmids were obtained by transforming DH10Bac Escherichia coli cells. To obtain HGFA containing baculovirus, purified bacmids were transfected into Sf9 insect cells. After 5 days in culture at 27° C., media was harvested from transfected Sf9 cells. This media was used to prepare baculovirus infected insect cells (BIICs). These BIIICs were used to infect High 5 insect cells. Four days post infection, media was harvested, and recombinant protein was prepared as follows. Media was chilled to 4° C. and spun at 4000×g for 20 minutes (all subsequent steps were performed at 4° C. unless noted). Clarified media was passed first through a Whatman GF/B 1 um (#1821-047, GE Healthcare Life Sciences, Piscataway, NJ) and then a 0.22 μm PES membrane (#99955, TPP Techno Plastic Products AG, Trasadingen, Switzerland) and then concentrated using a Pall Centramate tangential flow system and Centramate T-series Cassette (#OS010T12, Pall Corporation, Port Washington, NY). Concentrated media was then buffer exchanged in two steps, five volumes of 50 mM Na-phosphate, 500 mM NaCl, pH 6.2, followed by five volumes of 50 mM Na-phosphate, 500 mM NaCl, pH 7.5. […] After mixing this slurry for 12 hours, nickel agarose beads were allowed to settle by gravity and then loaded into a column. Beads were washed with buffer (25 mM Na-phosphate, 500 mM NaCl, 25 mM imidazole, pH 8) and the bound protein eluted using (25 mM Na-phosphate, 500 mM NaCl, 250 mM imidazole, pH 8). Using a Amicon Ultra-4 Centrifugal filters (#UFC801008, Merck Millipore, Ltd., Tullagreen, Ireland), peak protein fractions were concentrated and run over a Superdex-200 10/300 GL column (GE Healthcare Life Sciences, Piscataway, NJ) in 10 mM Tris, 200 mM NaCl, 0.2 mM EDTA, pH 8. HGFA containing fractions were pooled, concentrated, made 50% glycerol, and stored at minus 20° C. Protein was quantitated using a modified Lowry protein assay (#500-0006, Bio-Rad Laboratories, Hercules, CA) and specific activity determined using Boc-QLR-AMC substrate.
Fluorescent kinetic enzyme assays of HGFA, matriptase, and hepsin activity: Compounds (0-20 μM final concentration in reaction) were diluted in DMSO (2% DMSO final concentration in reaction) and then mixed with either recombinant HGFA serine protease domain, matriptase (#3946-SE-010, R&D Systems, Minneapolis, Minnesota), or activated hepsin* (#4776-SE-010, R&D Systems, Minneapolis, Minnesota) in black 384 well plates (Corning #3575. Coming, NY). The final assay concentration for HGFA, matriptase, and hepsin, were 6.25 nM, 0.2 nM, and 0.3 nM, respectively in TNC buffer (25 mM Tris, 150 mM NaCl, 5 mM CaCl2, 0.01% Triton X-100, pH 8). After thirty minutes of incubation at room temperature, Boc-QLR-AMC substrate was added (HGFA assay) or Boc-QAR-AMC substrate (matriptase, and hepsin assays). Fluorescence (excitation at 380 nm and emission at 460 nm) was kinetically measured at room temperature over a 1 hour time period using a Biotek Synergy 2 plate reader (Winnoski, VT). From a plot of the mean reaction velocity versus the inhibitor concentration, a non-linear four parameter curve fit was performed using GraphPad Prism (GraphPad Software, San Diego, CA) to determine inhibitor IC50s. The IC50 values were determined from the average of three or more separate experimental determinations. […]

For the next experiment, the target named is T3, matriptase (Homo sapiens, UniProt Q9Y5Y6).
T3 construct: purchased R&D Systems 3946-SE-010
T3 sequence (Q9Y5Y6 615-855 limits assumed): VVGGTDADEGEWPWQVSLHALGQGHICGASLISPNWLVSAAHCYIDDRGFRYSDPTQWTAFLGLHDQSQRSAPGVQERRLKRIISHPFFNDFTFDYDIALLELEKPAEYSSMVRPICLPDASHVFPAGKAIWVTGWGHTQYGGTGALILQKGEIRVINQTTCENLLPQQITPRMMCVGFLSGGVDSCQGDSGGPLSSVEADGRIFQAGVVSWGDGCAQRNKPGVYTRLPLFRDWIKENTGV
Description: Fluorescent kinetic enzyme assay of matriptase activity (Boc-QAR-AMC). The settings on record: Table 2; read-out: Matriptase (IC50 nM).

The target of a further experiment is Factor Xa (Homo sapiens, UniProt P00742). Description: Chromogenic kinetic enzyme assay of Factor Xa (S2222). The following applies: Table 2; chromogenic assay; read-out: Factor Xa* (IC50 nM). As for the experimental part: Using GraphPad Prism (GraphPad Software, San Diego, CA), a four-parameter curve fit was used to determine the inhibitor IC50s from a plot of the mean reaction velocity versus the inhibitor concentration. The IC50 values represent the average of three or more separate experimental determinations. Apparent Ki values were calculated from the IC50 values using the Cheng and Prusoff equation (Ki=IC50/(1+[S]/Km).
Using GraphPad Prism version 6.04 software program, (GraphPad Software, San Diego, CA, graphpad.com), a four parameter curve fit was used to determine the inhibitor IC50s from a plot of the mean reaction velocity versus the inhibitor concentration.
Fluorescent inhibitor and chromogenic proteolytic assays were performed for compounds prepared in Example 11 in general accordance with the procedures described in Example 9.

This note sets out measurements from patent US12590123B2, “Compounds and methods for treating cancer, viral infections, and allergic conditions” (Washington University, priority 2019, dated 2026).

Molecules are shown by their SMILES. Where only a bound is given, the exact number is not on record here.

T1 sequence (P05981 163-417 limits assumed): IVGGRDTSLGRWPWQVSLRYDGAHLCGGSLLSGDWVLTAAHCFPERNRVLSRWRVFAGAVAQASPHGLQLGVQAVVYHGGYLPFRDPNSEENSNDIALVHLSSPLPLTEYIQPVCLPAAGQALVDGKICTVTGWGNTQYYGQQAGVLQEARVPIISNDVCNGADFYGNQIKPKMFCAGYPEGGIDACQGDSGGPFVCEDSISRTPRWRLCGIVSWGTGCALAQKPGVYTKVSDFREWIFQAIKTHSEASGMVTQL
T1 sequence (P05981 1-162 partner limits assumed): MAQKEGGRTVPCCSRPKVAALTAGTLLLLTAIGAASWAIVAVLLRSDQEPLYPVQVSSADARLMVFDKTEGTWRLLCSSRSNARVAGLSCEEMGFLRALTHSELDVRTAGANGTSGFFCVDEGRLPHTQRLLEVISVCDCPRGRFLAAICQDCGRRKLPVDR
Factor Xa, sequence (P00742 235-488 limits assumed): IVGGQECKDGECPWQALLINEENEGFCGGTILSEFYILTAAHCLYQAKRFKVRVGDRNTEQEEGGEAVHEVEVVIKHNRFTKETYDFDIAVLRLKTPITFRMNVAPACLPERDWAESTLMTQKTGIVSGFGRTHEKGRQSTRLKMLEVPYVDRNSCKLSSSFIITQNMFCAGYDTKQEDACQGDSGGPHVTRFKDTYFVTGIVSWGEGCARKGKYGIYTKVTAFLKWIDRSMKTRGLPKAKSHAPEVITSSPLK
Factor Xa, sequence (P00742 41-179 partner limits assumed): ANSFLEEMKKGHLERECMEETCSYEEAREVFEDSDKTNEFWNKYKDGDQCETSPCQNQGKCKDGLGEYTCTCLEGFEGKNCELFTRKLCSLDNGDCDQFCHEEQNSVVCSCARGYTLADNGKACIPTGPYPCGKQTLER

Regarding `CC(=O)N[C@H]1Cc2ccc(cc2)OCCCC[C@@H](C(=O)N[C@H](CCCNC(=N)N)C(=O)c2nc3ccccc3s2)NC(=O)[C@H](Cc2ccccc2)NC1=O` [VD4111A], the IC50 (usually the concentration that gives 50% inhibition) was 12.7 nM on activated hepsin, 3280 nM in experiment [1] and 330 nM at matriptase.

`CC(=O)N[C@H]1Cc2ccc(cc2)OC/C=C\CNC(=O)C[C@@H](C(=O)N[C@H](CCCNC(=N)N)C(=O)c2nc3ccccc3s2)NC(=O)[C@H](CC(C)C)NC1=O` [VD4054A]: the concentration for half-maximal inhibition (IC50) was 14 nM on activated hepsin, greater than 20000 nM in experiment [1] and 76.6 nM at matriptase.

`CC(=O)N[C@H]1CCC(=O)NCCCC[C@@H](C(=O)N[C@@H](CCCNC(=N)N)C(=O)c2nc3ccccc3s2)NC(=O)[C@H](CC(C)C)NC1=O` [VD2169, (2S,5S,14S)-14-acetamido-N—((S)-1-(benzo[d]thiazol-2-yl)-5-guanidino-1-oxopentan-2-yl)-2-isobutyl-3,11,15-trioxo-1,4,10-triazacyclopentadecane-5-carboxamide]: the values for the IC50 on activated hepsin, at matriptase and on Factor Xa were 8.4 nM, 3.1 nM and 1710 nM, respectively.

As for `CC(=O)N[C@@H](Cc1ccc(O)c([N+](=O)[O-])c1)C(=O)N[C@@H](CC(C)C)C(=O)N[C@@H](Cc1ccc(Br)cc1)C(=O)N[C@H](CCCNC(=N)N)C(=O)c1nc2ccccc2s1` [VD4112A], the concentration for half-maximal inhibition (IC50) on activated hepsin is 23.9 nM; in experiment [1], 3510 nM; at matriptase it was 111 nM.

As for `CC(C)C[C@@H]1NC(=O)[C@@H](N)CCCCNC(=O)CC[C@@H](C(=O)N[C@@H](CCCNC(=N)N)C(=O)c2nc3ccccc3s2)NC1=O` [VD2056, (2S,5S,14S)-14-amino-N—((S)-1-(benzo[d]thiazol-2-yl)-5-guanidino-1-oxopentan-2-yl)-2-isobutyl-3,8,15-trioxo-1,4,9-triazacyclopentadecane-5-carboxamide], the IC50 on activated hepsin is 11.9 nM; in experiment [1], greater than 20000 nM; at matriptase, 11.5 nM.

Turning to `CC(C)C[C@@H]1NC(=O)[C@@H](N)CCCCNC(=O)C[C@@H](C(=O)N[C@@H](CCCNC(=N)N)C(=O)c2nc3ccccc3s2)NC1=O` [VD1185, (2S,5S,13S)-13-amino-N—((S)-1-(benzo[d]thiazol-2-yl)-5-guanidino-1-oxopentan-2-yl)-2-isobutyl-3,7,14-trioxo-1,4,8-triazacyclotetradecane-5-carboxamide], the IC50 on activated hepsin was 92 nM; in experiment [1], greater than 20000 nM; on matriptase, 1.1 nM.

In the case of `CC(=O)N[C@H]1CCCCNC(=O)C[C@@H](C(=O)N[C@@H](CCCNC(=N)N)C(=O)c2nc3ccccc3s2)NC(=O)[C@H](CC(C)C)NC1=O` [VD2167, (2S,5S,13S)-13-acetamido-N—((S)-1-(benzo[d]thiazol-2-yl)-5-guanidino-1-oxopentan-2-yl)-2-isobutyl-3,7,14-trioxo-1,4,8-triazacyclotetradecane-5-carboxamide], the IC50 on activated hepsin turned out to be 25.1 nM; on matriptase, 19.6 nM; on Factor Xa, 1160 nM.

With `CC(=O)N[C@H]1Cc2ccc(cc2)OC/C=C\C[C@@H](C(=O)NC(CCCNC(=N)N)C(=O)c2nc3ccccc3s2)NC(=O)[C@H](CC(C)C)NC1=O` (stereo partly drawn) [VD4010A], the results for the half-maximal inhibitory concentration (IC50) (at activated hepsin; in experiment [1]; at matriptase) were 1.14 nM, 197 nM and 31.6 nM, respectively.

In the case of `CC(=O)N[C@H]1CCCCNC(=O)CC[C@@H](C(=O)N[C@@H](CCCNC(=N)N)C(=O)c2nc3ccccc3s2)NC(=O)[C@H](CCCNC(=N)N)NC1=O` [VD2109, (2S,5S,14S)-14-acetamido-N—((S)-1-(benzo[d]thiazol-2-yl)-5-guanidino-1-oxopentan-2-yl)-2-(3-guanidinopropyl)-3,8,15-trioxo-1,4,9-triazacyclopentadecane-5-carboxamide], the results for the 50% inhibitory concentration (IC50) (at activated hepsin; in experiment [1]; on matriptase) were 0.08 nM, 5050 nM and 0.13 nM, respectively.

Take `C=CCNC(=O)CC[C@H](NC(=O)[C@H](CC(C)C)NC(=O)[C@H](Cc1ccc(OCC=C)cc1)NC(C)=O)C(=O)N[C@@H](CCCNC(=N)N)C(=O)c1nc2ccccc2s1` [VD4022, (S)-2-((S)-2-((S)-2-acetamido-3-(4-(allyloxy)phenyl)propanamido)-4-methylpentanamido)-N5-allyl-N1-((S)-1-(benzo[d]thiazol-2-yl)-5-guanidino-1-oxopentan-2-yl)pentanediamide]: the IC50 on activated hepsin turned out to be 10.1 nM; in experiment [1], 4750 nM; at matriptase it was 19.1 nM.

With `CC(=O)N[C@H]1CCCCNC(=O)CCC(C(=O)N[C@H](CCCNC(=N)N)C(=O)c2nc3ccccc3s2)NC(=O)[C@H](CCCNC(=N)N)NC1=O` (stereo partly drawn) [VD2109A], the values for the IC50 (on activated hepsin; in experiment [1]; on matriptase) were 0.14 nM, 4090 nM and 0.19 nM, respectively.

For the compound `CC(=O)N[C@H]1Cc2ccc(cc2)OC/C=C\CNC(=O)CC[C@@H](C(=O)N[C@@H](CCCNC(=N)N)C(=O)c2nc3ccccc3s2)NC(=O)[C@H](CC(C)C)NC1=O` [VD4018, (11S,14S,17S,Z)-17-acetamido-N—((S)-1-(benzo[d]thiazol-2-yl)-5-guanidino-1-oxopentan-2-yl)-14-isobutyl-8,13,16-trioxo-2-oxa-7,12,15-triaza-1(1,4)-benzenacyclooctadecaphan-4-ene-11-carboxamide], the concentration for half-maximal inhibition (IC50) on activated hepsin was found to be 6.31 nM; at matriptase, 9.84 nM; on Factor Xa, 1240 nM.
